Drawing on ChEMBL document CHEMBL1134198, “Structure-activity relationships of quinazoline derivatives: dual-acting compounds with inhibitory activities toward both TNF-alpha production and T cell proliferation” (Bioorg Med Chem Lett, 2001), this text covers IC50 for 38 compounds.

A short description of test [1]: Inhibitory concentration against TNF-alpha production from human peripheral blood mononuclear cells stimulated by LPS. Type of test: functional.
A short description of test [2]: Inhibitory concentration against growth of LPS stimulated human peripheral blood mononuclear cells. Type of test: functional.
For a further test, the system named is T-cell. The test can be described thus: Inhibitory concentration against T cell proliferation using concanavalin A stimulated mice spleen cells. Format: functional, cell-based. The note with it: Mus musculus.

The term IC50 denotes the concentration that inhibits the measured activity by half. The low end stands for inhibition by little substance, the high end for a need for much substance. On to `COc1cc2ncnc(NCCc3ccc(Cl)cc3)c2cc1[N+](=O)[O-]`, for which the IC50 in test [1] (Homo sapiens) and in test [2] (Homo sapiens) was > 30 µM in each case.
As to `Clc1ccc(CCNc2ncnc3ccc(Cl)cc23)cc1`, the IC50 is > 30 µM in test [1] (Homo sapiens), > 10 µM with T-cell and > 30 µM in test [2] (Homo sapiens).
As to `CNc1ccc2ncnc(NCCc3ccc(Cl)cc3)c2c1`, the values for the IC50 (in test [1] (Homo sapiens); in the test with T-cell; in test [2] (Homo sapiens)) were > 30 µM, > 10 µM and > 30 µM, respectively.
With `O=[N+]([O-])c1cc2c(NCCc3ccc(Cl)cc3)ncnc2cc1N1CCN(c2ccccn2)CC1`, the results for the IC50 (in test [1] (Homo sapiens); in the test with T-cell; in test [2] (Homo sapiens)) were > 30 µM, > 10 µM and > 30 µM, respectively.
On to `Fc1cc2ncnc(NCCc3ccc(Cl)cc3)c2cc1F`, for which the IC50 in test [1] (Homo sapiens) and in test [2] (Homo sapiens) was > 30 µM each time.
For the compound `Clc1ccc(CCNc2ncnc3cc(Cl)ccc23)cc1`, the IC50 in test [1] (Homo sapiens) was > 30 µM; in the test with T-cell it was > 10 µM; in test [2] (Homo sapiens) it was > 30 µM.
As for `CS(=O)(=O)N1CCN(c2cc3ncnc(NCCc4ccc(Cl)cc4)c3cc2[N+](=O)[O-])CC1`, the IC50 in test [1] (Homo sapiens) was > 30 µM; in the test on T-cell, 4.3 µM; in test [2] (Homo sapiens) it was 4.5 µM.
For AURANOFIN, the IC50 in test [1] and in test [2] was > 30 µM each time.
Take `COc1nc(NCCc2ccc(Cl)cc2)c2ccccc2n1`: the IC50 in test [1] (Homo sapiens) was > 30 µM; with T-cell, > 10 µM; in test [2] (Homo sapiens), > 30 µM.
On to `O=C(O)c1cc(/N=N/c2ccc(S(=O)(=O)Nc3ccccn3)cc2)ccc1O` [SULFASALAZINE], for which the IC50 in test [1] (Homo sapiens) is > 30 µM; with T-cell, > 10 µM; in test [2] (Homo sapiens), > 30 µM.
Take `Clc1ccc(CCNc2nc(Cl)nc3ccccc23)cc1`: the IC50 was > 30 µM in test [1] (Homo sapiens), 1.2 µM with T-cell and > 30 µM in test [2] (Homo sapiens).
For `CN1CCN(c2cc3ncnc(NCCc4ccc(Cl)cc4)c3cc2[N+](=O)[O-])CC1`, the IC50 in test [1] (Homo sapiens) worked out at 1.4 µM; in the test with T-cell, 1.2 µM; in test [2] (Homo sapiens), 22.1 µM.
For `O=[N+]([O-])c1ccc2ncnc(NCCc3ccc(Cl)cc3)c2c1`, the IC50 was 14.6 µM in test [1] (Homo sapiens), 3.2 µM in the test with T-cell and > 30 µM in test [2] (Homo sapiens).
In the case of `Cc1ccc2ncnc(NCCc3ccc(Cl)cc3)c2c1`, the IC50 in test [1] (Homo sapiens) is > 30 µM; in the test with T-cell it was 0.8 µM; in test [2] (Homo sapiens), > 30 µM.
As to `CCNc1cc2ncnc(NCCc3ccc(Cl)cc3)c2cc1[N+](=O)[O-]`, the IC50 was > 30 µM in test [1] (Homo sapiens), > 10 µM with T-cell and > 30 µM in test [2] (Homo sapiens).
In the case of `Clc1ccc(CCNc2ncnc3ccc(OCc4ccccc4)cc23)cc1`, the IC50 was > 30 µM in test [1] (Homo sapiens), > 10 µM in the test on T-cell and > 30 µM in test [2] (Homo sapiens).
`O=[N+]([O-])c1ccc2c(NCCc3ccc(Cl)cc3)ncnc2c1`: the IC50 in test [1] (Homo sapiens) was > 30 µM; in the test with T-cell, 5.6 µM; in test [2] (Homo sapiens), > 30 µM.
In the case of `Nc1ccc2ncnc(NCCc3ccc(Cl)cc3)c2c1`, the values for the IC50 (in test [1] (Homo sapiens); with T-cell; in test [2] (Homo sapiens)) were > 30 µM, 2.6 µM and > 30 µM, respectively.
In the case of `O=[N+]([O-])c1cc2c(NCCc3ccc(Cl)cc3)ncnc2cc1N1CCN(c2ccccc2)CC1`, the results for the IC50 (in test [1] (Homo sapiens); in the test on T-cell; in test [2] (Homo sapiens)) were > 30 µM, > 10 µM and > 30 µM, respectively.
Turning to `Nc1ccc2c(NCCc3ccc(Cl)cc3)ncnc2c1`, the IC50 in test [1] (Homo sapiens) is > 30 µM; in the test on T-cell, 3.4 µM; in test [2] (Homo sapiens), > 30 µM.
For the compound `CCOc1cc2ncnc(NCCc3ccc(Cl)cc3)c2cc1[N+](=O)[O-]`, the IC50 in test [1] (Homo sapiens) and in test [2] (Homo sapiens) was > 30 µM throughout.
For the compound `Clc1ccc(CCNc2ncnc3ccccc23)cc1`, the IC50 in test [1] (Homo sapiens) was > 30 µM; in the test on T-cell, 0.5 µM; in test [2] (Homo sapiens) it was > 30 µM.
For the compound `Clc1ccc(CCNc2nc(-c3ccccc3)nc3ccccc23)cc1`, the IC50 in test [1] (Homo sapiens) was > 30 µM; in the test with T-cell it was > 10 µM; in test [2] (Homo sapiens), > 30 µM.
Take `Clc1ccc(CCNc2ncnc3ccc(Br)cc23)cc1`: the IC50 was > 30 µM in test [1] (Homo sapiens), 4.8 µM in the test with T-cell and > 30 µM in test [2] (Homo sapiens).
Turning to `Cc1nc(NCCc2ccc(Cl)cc2)c2ccccc2n1`, the IC50 in test [1] (Homo sapiens) was > 30 µM; in the test with T-cell, 0.2 µM; in test [2] (Homo sapiens) it was > 30 µM.
With `CC(C)(S)[C@@H](N)C(=O)O` [PENICILLAMINE], the concentration for half-maximal inhibition (IC50) in test [1] (Homo sapiens) and in test [2] (Homo sapiens) was > 30 µM in each case.
Regarding `C[C@@H]1C[C@H]2[C@@H]3CCC4=CC(=O)C=C[C@]4(C)[C@@]3(F)[C@@H](O)C[C@]2(C)[C@@]1(O)C(=O)CO` [DEXAMETHASONE], the results for the IC50 (in test [1] (Homo sapiens); in the test on T-cell; in test [2] (Homo sapiens)) were 0.01 µM, 0.005 µM and 0.04 µM, respectively.
Regarding `O=[N+]([O-])c1cc2c(NCCc3ccc(Cl)cc3)ncnc2cc1N1CCOCC1`, the IC50 turned out to be 24.8 µM in test [1] (Homo sapiens), 8.3 µM in the test with T-cell and 22.5 µM in test [2] (Homo sapiens).
For `Oc1ccc2ncnc(NCCc3ccc(Cl)cc3)c2c1`, the IC50 was > 30 µM in test [1] (Homo sapiens), 1.4 µM in the test with T-cell and > 30 µM in test [2] (Homo sapiens).
For the compound `O=[N+]([O-])c1cc2c(NCCc3ccc(Cl)cc3)ncnc2cc1N1CCCNCC1`, the IC50 stood at 2.1 µM in test [1] (Homo sapiens), 0.9 µM with T-cell and 9.8 µM in test [2] (Homo sapiens).
The matching figures for `O=[N+]([O-])c1cc2c(NCCc3ccc(Cl)cc3)ncnc2cc1N1CCCCC1`: > 30 µM, > 10 µM and > 30 µM.
The matching figures for `COc1ccc(C2CNC(=O)C2)cc1OC1CCCC1` (centres undefined) [ROLIPRAM]: 0.5 µM, > 10 µM and > 30 µM.
In the case of `O=[N+]([O-])c1cc2c(NCCc3ccc(Cl)cc3)ncnc2cc1Cl`, the IC50 in test [1] (Homo sapiens) was > 30 µM; in the test on T-cell, > 10 µM; in test [2] (Homo sapiens), > 30 µM.
Consider `COc1cc2ncnc(NCCc3ccc(Cl)cc3)c2cc1OC`, for which the IC50 was > 30 µM in test [1] (Homo sapiens), 1.4 µM with T-cell and > 30 µM in test [2] (Homo sapiens).
With `O=[N+]([O-])c1cc2c(NCCc3ccc(Cl)cc3)ncnc2cc1N1CCNCC1`, the IC50 amounted to 0.8 µM in test [1] (Homo sapiens), 1.1 µM in the test with T-cell and 12.1 µM in test [2] (Homo sapiens).
In the same order, the values of `Clc1ccc(CCNc2ncnc3ccc(NCc4ccccc4)cc23)cc1` are > 30 µM, > 10 µM and > 30 µM.
As to `CN(C)c1cc2ncnc(NCCc3ccc(Cl)cc3)c2cc1[N+](=O)[O-]`, the IC50 in test [1] (Homo sapiens) was found to be 19.4 µM; in the test with T-cell, 8.6 µM; in test [2] (Homo sapiens), 27.3 µM.
In the same order, the values of `O=CNc1ccc2ncnc(NCCc3ccc(Cl)cc3)c2c1` are > 30 µM, > 10 µM and > 30 µM.
